Where a SMILES comes first, the peptide text is derived from it. The star is where a group is joined. Cbz = O=C(OCc1ccccc1)*
How the values were obtained:
[1] = tested on: POLG; settings: cited from earlier work; for inhibition of POLG activity in vitro: extent of inhibition varies widely
[2] = tested on: Hec59 cells (MSH2 deficient); assay: 8-OHdG ELISA on isolated DNA; assay type: cell-based, human; settings: compound treatment for three days
Experimental: (§1) Genomic DNA was extracted using the Qiamp DNA isolation kit (Qiagen) and digested with nuclease P1. Mitochondrial and nuclear DNA was extracted using the mitochondrial DNA isolation kit (ab65321, Abcam). A commercially available ELISA kit from Cell Biolabs was used to determine levels of 8-OHdG in isolated DNA. The assays were performed according to the manufacturer's instructions. The 8-OHdG standard (0.078-20 ng/ml) or 10 μg DNA from siRNA transfected cells was incubated with a 8-OHdG monoclonal antibody in a microtiter plate precoated with 8-OHdG.
(§2) Addition of […] to replicate samples was followed by measurement of absorbance at 450 nm. Standard curves were calculated for all reactions with serial dilutions of 8-OHdG standard to calculate reaction efficiency. Samples were assayed in triplicate.

[3] = tested on: Hec59+chr2 cells (MSH2 proficient); assay: 8-OHdG ELISA on isolated DNA; assay type: cell-based, human; settings: compound treatment for three days
Experimental: as §1, §2

[4] = tested on: Hec59 and Hec59+chr2 cells; assay: High-throughput compound inhibitor screen, CellTitre Glo viability; assay type: cell-based, human; settings: library of 1120 compounds; viability after six days
Experimental: (§3) Compound libraries were purchased from Prestwick Chemicals (Saffron Walden, Essex, UK). Validation experiments were carried out with Methotrexate (Biomol International L.P.) and Menadione and Partenolide (Prestwick chemicals). Cells were plated in 96-well plates. After 12 hr incubation, cells were exposed to compound or equimolar DMSO and re-treated every 48 hrs. Cell viability was measured six days later using the CellTitre Glo assay (Promega) according to the manufacturer's instructions. Validation of hit compounds was performed by clonogenic assays. Exponentially growing cells were seeded at various densities in six-well plates. Cells were treated with increasing concentrations of the compound. Cell medium was replaced every four days. After ten to fourteen days, cells were fixed in methanol, stained with crystal violet, and counted. The plating efficiencies were calculated as the number of colonies divided by the number of cells plated for each compound treatment. The surviving fraction (SF) for a given sample was calculated as the plating efficiencies for each compound treated cells divided by the plating efficiencies of DMSO treated cells.

[5] = tested on: reactive oxygen species (ROS); settings: VK3 at 30 μM; leading to apoptosis; cited from earlier work
[6] = tested on: Hec59 and Hec59+chr2 cells; assay: Clonogenic assay with compounds; assay type: cell-based, human; settings: folic acid added in concert with methotrexate; Hec59 MSH2 deficient cells; 14 days
Experimental: as §3

[7] = tested on: OGG1 expression in HeLa cells; assay: Western blot for OGG1 expression; assay type: cell-based, human; settings: POLB silenced cells; 50 μM MG132, lysates 18 hours later
Experimental: (§4) Cell pellets were lysed in 20 mmol/L Tris (pH 8), 200 mmol/L NaCl, 1 mmol/L EDTA, 0.5% (v/v) NP40, 10% (v/v) glycerol, and protease inhibitors. Immunoprecipitations were performed by incubating Protein G beads (Sigma), 1-2 mg of precleared cell lysate and anti-POLB antibody (ab3181, Abcam; dilution 1:100) overnight at 4° C. Beads were subsequently washed three times in cold lysis buffer, after which 2× loading buffer was added and the samples were boiled for 5 min before SDS-PAGE. For western blotting, lysates were electrophoresed on Novex precast gels (Invitrogen) and immunoblotted using the following antibodies: anti-MSH2 (Ab-1, Calbiochem), anti-POLB (ab3181, Abcam), anti-MLH1 (ab9144, Abcam), anti-POLG (Novus), anti-PCNA (SC7907, Santa-Cruz), anti-Cytochrome C (Pharmagen) anti-OGG1 (NB100-106, Novus biologicals), anti-CHIP (ab39559, Abcam) and anti-β-tubulin, (T4026, Sigma). This was followed by incubation with anti-IgG-horseradish peroxidase and chemiluminescent detection (SuperSignal West Pico Chemiluminescent Substrate, Pierce). Immunoblotting for (1-tubulin was used as a loading control.

[8] = biological target: POLB (Rattus norvegicus, UniProt P06766); settings: read-out: IC50 as POLB inhibitor; cited from earlier work
[9] = tested on: POLB mRNA in MSH2 deficient and proficient cells; assay: POLB mRNA by qRT-PCR after H2O2; assay type: cell-based, human; settings: 100 μM H202, RNA isolated after 15 mins
Experimental: Quantification of RNA expression was measured by real time RT-PCR. Total RNA was extracted from cells with Trizol (Invitrogen) according to manufacturer's instructions. Total RNA from patient biopsies was purified from 10 μm sections using the High Pure RNA Paraffin Kit (Roche Diagnostic Ltd). cDNA was synthesized using Omniscript Reverse Transcriptase System for RT-PCR (Qiagen) with oligo dT as per manufacturer's instructions. Assay-on-Demand primer/probe sets were purchased from Applied Biosystems (Foster City, Calif.). Real-Time qPCR was performed on the […] Fast Real-Time PCR System (Applied Biosystems), with endogenous control β-Actin. Standard curves were calculated for all reactions with serial dilutions of control Hec59+chr2 cells to calculate reaction efficiency. Gene expression was calculated relative to expression of β-Actin endogenous control, and adjusted relative to expression in control Hec59+chr2 cells. Samples were quantified in triplicate.

[10] = tested on: Hec59+chr2 cells; assay: Clonogenic survival with methotrexate after MSH2 siRNA; assay type: cell-based, human; settings: cells transfected with MSH2 siRNA vs siControl; continuous exposure 14 days
Experimental: (§5) For clonogenic assays, exponentially growing cells were seeded at various densities in six-well plates. Cells were transfected with siRNA as before. Cell medium was replaced every four days. After ten to fourteen days, cells were fixed in methanol, stained with crystal violet, and counted. The plating efficiencies were calculated as the number of colonies divided by the number of cells plated for each siRNA transfection. The surviving fraction (SF) for a given sample was calculated as the plating efficiencies for each siRNA transfection divided by the plating efficiencies of siControl siRNA transfected cells. All transfections were carried out in triplicate.
(§6) Compound libraries were purchased from Prestwick Chemicals (Saffron Walden, Essex, UK). […] Cell viability was measured six days later using the CellTitre Glo assay (Promega) according to the manufacturer's instructions. […] After ten to fourteen days, cells were fixed in methanol, stained with crystal violet, and counted. The plating efficiencies were calculated as the number of colonies divided by the number of cells plated for each compound treatment. The surviving fraction (SF) for a given sample was calculated as the plating efficiencies for each compound treated cells divided by the plating efficiencies of DMSO treated cells.

[11] = tested on: HeLa cells; assay: as above; assay type: cell-based, human; settings: cells transfected with MSH2 siRNA vs siControl; continuous exposure 14 days
Experimental: as §5, §6

[12] = tested on: POLβ expression in Hec59 and Hec59+chr2 cells; assay: Western blot for POLβ expression; assay type: cell-based, human; settings: 72 hours after treatment with methotrexate
Experimental: as §4
Transfected cell pellets were lysed in 20 mmol/L Tris (pH 8), 200 mmol/L NaCl, 1 mmol/LEDTA, 0.5% (v/v) NP40, 10% (v/v) glycerol, and protease inhibitors. […]

## Cc1cn([C@H]2C[C@H](N=[N+]=[N-])[C@@H](COP(=O)(O)OP(=O)(O)OP(=O)(O)O)O2)c(=O)[nH]c1=O [zidovudine-TP]
[1]
  inhibition of POLG activity in vitro: inhibit POLG activity in vitro

## CC1=CC(=O)c2ccccc2C1=O [Menadione, 2-methylnaphthalene-1,4-dione]
[1]; VK3 at 30 μM
  inhibition of POLG: more than 80%
[2]
  8-OHdG accumulation: increased significantly
[3]
  8-OHdG accumulation: did not increase
[4]
  selectivity for MSH2 deficient cells in high-throughput screen: show selectivity for MSH2 deficient cells
[5]
  reactive oxygen species (ROS): significant increase

## Nc1ccn([C@@H]2CS[C@H](COP(=O)(O)OP(=O)(O)OP(=O)(O)O)O2)c(=O)n1 [Lamivudine-TP]
[1]
  inhibition of POLG activity in vitro: inhibit POLG activity in vitro

## Nc1nc2ncc(CNc3ccc(C(=O)N[C@@H](CCC(=O)O)C(=O)O)cc3)nc2c(=O)[nH]1 [folic acid]
[6]
  rescue of methotrexate lethality: in large part rescues the lethal phenotype

## CC(C)C[C@@H](C=O)NC(=O)[C@H](CC(C)C)NC(=O)[C@H](CC(C)C)NC(=O)OCc1ccccc1 [MG132] (Cbz-Leu-Leu-Leu-aldehyde)
[7]
  OGG1 expression: restored the expression of OGG1

## C/C(=C/CC[C@H](C)[C@@H]1CC[C@]2(C)C3=CC[C@H]4C(C)(C)C(=O)CC[C@]4(C)[C@H]3CC[C@@]12C)C(=O)O [masticadienonic acid]
[8]
  IC50: 8 µM

## Nc1ncnc2c1ncn2CCOCP(=O)(O)OP(=O)(O)OP(=O)(O)O [adefovir-diphosphate]
[1]
  inhibition of POLG activity in vitro: inhibit POLG activity in vitro

## CC(Cn1cnc2c(N)ncnc21)OCP(=O)(O)OP(=O)(O)OP(=O)(O)O (stereo in doubt) [tenofovir-DP]
[1]
  inhibition of POLG activity in vitro: inhibit POLG activity in vitro

## Nc1ccn([C@H]2CC[C@@H](COP(=O)(O)OP(=O)(O)OP(=O)(O)O)O2)c(=O)n1 [zalcitabine-TP]
[1]
  inhibition of POLG activity in vitro: inhibit POLG activity in vitro

## OO [H202]
[9]
  POLB mRNA levels: induced

## CN(Cc1cnc2nc(N)nc(N)c2n1)c1ccc(C(=O)N[C@@H](CCC(=O)O)C(=O)O)cc1 [Methotrexate, (S)-2-(4-(((2,4-diaminopteridin-6-yl)methyl)methylamino)benzamido)pentanedioic acid]
[2]
  8-OHdG accumulation: increased significantly
[3]
  8-OHdG accumulation: did not increase
[4]
  selectivity for MSH2 deficient cells in high-throughput screen: show selectivity for MSH2 deficient cells
[10]
  synthetic lethality with methotrexate (survival): synthetically lethal
[11]
  synthetic lethality with methotrexate (survival): synthetically lethal
[12]
  POLβ expression: reduction of POLβ expression

From patent US20110212101A1, “MATERIALS AND METHODS FOR EXPLOITING SYNTHETIC LETHALITY IN MISMATCH REPAIR-DEFICIENT CANCERS” (priority 2007, published 2011)
